Experimental data as given in publication PMC12120022, “Discovery and chemical optimisation of a potent, Bi-cyclic antimicrobial inhibitor of Escherichia coli PBP3” (Communications Biology, 2025).
Where a SMILES comes first, the peptide text is derived from it.

Target: T1, EcPBP3 (Escherichia coli, UniProt P0AD68)
T1 construct: For assays, selections and SPR a construct with residues 60–588 which has the N-terminal domain, but not the transmembrane helix, was used; made in house
Assay: SPR binding assay on immobilised EcPBP3
Conditions: for Kd: 37 °C, kinetic fitting, NB = no binding at 2500 nM (Tables S-4, S-5) or 5000 nM (Table 1), read-out: Kd (nM) by SPR (geomean); for Improvement in binding affinity: hydrophobic extension of Trp6, relative to parent peptide
Protocol: Surface plasmon resonance (SPR) assays were performed using EcPBP3 immobilized on CM5 sensor chips (GE Healthcare) via amine-coupling chemistry in assay buffer (10 mM HEPES pH 8.0, 200 mM NaCl, 0.05% (v/v) surfactant P20). The chip surface was activated by injection (10 μL min^–1) of 0.4 M EDC and 0.1 M NHS (in a 1:1 ratio) with a 7 min contact time. Protein was diluted to 25 μg mL^–1 in 10 mM MOPS (pH 7.0) and injected over the activated sensor chip surface to reach immobilization of 1500-2500 response units. Excess hydroxysuccinimidyl groups on the chip surface were deactivated by injection (10 μL min^–1) of 1 M ethanolamine hydrochloride pH 8.0 with a 7 min contact time. Reference flow cells were prepared as described, but without ligand (EcPBP3 protein).
Binding analysis runs were performed at 37 °C in running buffer (10 mM HEPES pH 8.0, 200 mM NaCl, 0.05% (w/v) Tween-20, 2% (v/v) DMSO). Test compounds (and control runs of buffer only) were injected in running buffer over the EcPBP3 chip and reference flow cell, at flow rate of 50 μL min^–1 for 150 s contact time and 2400 s dissociation time. Each injection was followed by a wash with 50% (v/v) DMSO. All compounds were tested in at least two independent biological replicates unless otherwise stated.
Raw sensorgrams data were solvent-corrected, reference-subtracted and blank-buffer-subtracted (double-referencing) before kinetic and affinity analysis to account for non-specific binding and injection artifacts. Equilibrium dissociation constant (Kd) values was determined using the Biacore™ Insight Evaluation Software (version 4.0.8 or version 5.0.17) using kinetic fitting. Kd values presented are the geometric mean of at least two biological replicates.

T1 sequence (P0AD68 60-588): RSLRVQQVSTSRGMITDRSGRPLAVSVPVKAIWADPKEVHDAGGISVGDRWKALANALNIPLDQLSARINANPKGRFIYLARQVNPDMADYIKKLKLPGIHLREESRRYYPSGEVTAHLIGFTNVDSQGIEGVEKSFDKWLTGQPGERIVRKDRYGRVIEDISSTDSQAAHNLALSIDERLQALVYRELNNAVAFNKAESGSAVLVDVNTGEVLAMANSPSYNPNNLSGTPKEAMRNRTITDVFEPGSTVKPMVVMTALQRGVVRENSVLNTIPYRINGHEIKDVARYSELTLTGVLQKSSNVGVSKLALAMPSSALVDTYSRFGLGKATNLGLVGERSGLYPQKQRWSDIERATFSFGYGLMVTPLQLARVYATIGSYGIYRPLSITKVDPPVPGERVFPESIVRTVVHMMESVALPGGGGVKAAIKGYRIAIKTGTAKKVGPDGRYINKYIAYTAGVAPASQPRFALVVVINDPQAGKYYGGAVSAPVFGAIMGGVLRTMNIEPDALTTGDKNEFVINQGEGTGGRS

SMILES	Kd [nM]	Improvement in binding affinity
CC(C)[C@@H]1NC(=O)[C@H](Cc2c[nH]c3ccccc23)NC(=O)[C@@H]2CCCN2C(=O)[C@@H]2CSCCC(=O)N3CN(CN(C3)C(=O)CCSC[C@H](NC(=O)[C@H](C)N)C(=O)N[C@@H](CO)C(=O)N[C@@H](C)C(=O)N3CCC[C@H]3C(=O)N[C@@H](CCCCN)C(=O)N2)C(=O)CCSC[C@@H](C(=O)N[C@@H](C)C(N)=O)NC(=O)CNC(=O)[C@H](CCC(=O)O)NC1=O [Peptide 17]	> 2500	–
CC(C)[C@@H]1NC(=O)[C@H](Cc2c[nH]c3ccccc23)NC(=O)[C@H](C)NC(=O)[C@@H]2CSCCC(=O)N3CN(CN(C3)C(=O)CCSC[C@H](NC(=O)[C@H](C)N)C(=O)N[C@@H](CO)C(=O)N[C@@H](Cc3ccccc3)C(=O)N3CCC[C@H]3C(=O)N[C@@H](CCCCN)C(=O)N2)C(=O)CCSC[C@@H](C(=O)N[C@@H](C)C(N)=O)NC(=O)CNC(=O)[C@H](CCC(=O)O)NC1=O [Peptide 20]	1380	–
CC(C)[C@@H]1NC(=O)[C@H](Cc2c[nH]c3ccccc23)NC(=O)[C@@H]2CCCN2C(=O)[C@@H]2CSCCC(=O)N3CN(CN(C3)C(=O)CCSC[C@H](NC(=O)[C@H](C)N)C(=O)N[C@@H](CO)C(=O)N[C@@H](Cc3c(F)c(F)c(F)c(F)c3F)C(=O)N3CCC[C@H]3C(=O)N[C@@H](CCCCN)C(=O)N2)C(=O)CCSC[C@@H](C(=O)N[C@@H](C)C(N)=O)NC(=O)CNC(=O)[C@H](CCC(=O)O)NC1=O [Peptide 54]	701	–
CC(C)[C@@H]1NC(=O)[C@H](Cc2c[nH]c3ccccc23)NC(=O)[C@@H]2CCCN2C(=O)[C@@H]2CSCCC(=O)N3CN(CN(C3)C(=O)CCSC[C@H](NC(=O)[C@H](C)N)C(=O)N[C@@H](CO)C(=O)N[C@@H](Cc3cccc(F)c3)C(=O)N3CCC[C@H]3C(=O)N[C@@H](CCCCN)C(=O)N2)C(=O)CCSC[C@@H](C(=O)N[C@@H](C)C(N)=O)NC(=O)CNC(=O)[C@H](CCC(=O)O)NC1=O [Peptide 55]	16.8	–
CC(C)[C@@H]1NC(=O)[C@H](Cc2c[nH]c3ccccc23)NC(=O)[C@@H]2CCCN2C(=O)[C@@H]2CSCCC(=O)N3CN(CN(C3)C(=O)CCSC[C@H](NC(=O)[C@H](C)N)C(=O)N[C@@H](CO)C(=O)N[C@@H](Cc3ccccc3F)C(=O)N3CCC[C@H]3C(=O)N[C@@H](CCCCN)C(=O)N2)C(=O)CCSC[C@@H](C(=O)N[C@@H](C)C(N)=O)NC(=O)CNC(=O)[C@H](CCC(=O)O)NC1=O [Peptide 56]	56.6	–
Cc1ccccc1C[C@@H]1NC(=O)[C@H](CO)NC(=O)[C@@H](NC(=O)[C@H](C)N)CSCCC(=O)N2CN3CN(C2)C(=O)CCSC[C@H](NC(=O)[C@H](CCCCN)NC(=O)[C@@H]2CCCN2C1=O)C(=O)N1CCC[C@H]1C(=O)N[C@@H](Cc1c[nH]c2ccccc12)C(=O)N[C@@H](C(C)C)C(=O)N[C@@H](CCC(=O)O)C(=O)NCC(=O)N[C@H](C(=O)N[C@@H](C)C(N)=O)CSCCC3=O [Peptide 57]	22.3	–
Cc1ccc(C[C@@H]2NC(=O)[C@H](CO)NC(=O)[C@@H](NC(=O)[C@H](C)N)CSCCC(=O)N3CN4CN(C3)C(=O)CCSC[C@H](NC(=O)[C@H](CCCCN)NC(=O)[C@@H]3CCCN3C2=O)C(=O)N2CCC[C@H]2C(=O)N[C@@H](Cc2c[nH]c3ccccc23)C(=O)N[C@@H](C(C)C)C(=O)N[C@@H](CCC(=O)O)C(=O)NCC(=O)N[C@H](C(=O)N[C@@H](C)C(N)=O)CSCCC4=O)cc1 [Peptide 58]	5.06	–
CC(C)[C@@H]1NC(=O)[C@H](Cc2c[nH]c3ccccc23)NC(=O)[C@@H]2CCCN2C(=O)[C@@H]2CSCCC(=O)N3CN(CN(C3)C(=O)CCSC[C@H](NC(=O)[C@H](C)N)C(=O)N[C@@H](CO)C(=O)N[C@@H](Cc3ccncc3)C(=O)N3CCC[C@H]3C(=O)N[C@@H](CCCCN)C(=O)N2)C(=O)CCSC[C@@H](C(=O)N[C@@H](C)C(N)=O)NC(=O)CNC(=O)[C@H](CCC(=O)O)NC1=O [Peptide 59] (HELM PEPTIDE1{A.C.S.[O=C([C@H](Cc1ccncc1)N[*:1])[*:2]].P.K.C.P.W.V.E.G.C.A.[am]}|CHEM1{[O=C(CC[*:1])N1CN(C(=O)CC[*:2])CN(C(=O)CC[*:3])C1]}$PEPTIDE1,CHEM1,2:R3-1:R1|PEPTIDE1,CHEM1,7:R3-1:R2|PEPTIDE1,CHEM1,13:R3-1:R3$$$V2.0)	121	–
CC(C)[C@@H]1NC(=O)[C@H](Cc2c[nH]c3ccccc23)NC(=O)[C@@H]2CCCN2C(=O)[C@@H]2CSCCC(=O)N3CN(CN(C3)C(=O)CCSC[C@H](NC(=O)[C@H](C)N)C(=O)N[C@@H](CO)C(=O)N[C@@H](Cc3ccccn3)C(=O)N3CCC[C@H]3C(=O)N[C@@H](CCCCN)C(=O)N2)C(=O)CCSC[C@@H](C(=O)N[C@@H](C)C(N)=O)NC(=O)CNC(=O)[C@H](CCC(=O)O)NC1=O [Peptide 60] (HELM PEPTIDE1{A.C.S.[O=C([C@H](Cc1ccccn1)N[*:1])[*:2]].P.K.C.P.W.V.E.G.C.A.[am]}|CHEM1{[O=C(CC[*:1])N1CN(C(=O)CC[*:2])CN(C(=O)CC[*:3])C1]}$PEPTIDE1,CHEM1,2:R3-1:R1|PEPTIDE1,CHEM1,7:R3-1:R2|PEPTIDE1,CHEM1,13:R3-1:R3$$$V2.0)	122	–
CC(C)[C@@H]1NC(=O)[C@H](Cc2c[nH]c3ccccc23)NC(=O)[C@@H]2CCCN2C(=O)[C@@H]2CSCCC(=O)N3CN(CN(C3)C(=O)CCSC[C@H](NC(=O)[C@H](C)N)C(=O)N[C@@H](CO)C(=O)N[C@@H](CCc3ccccc3)C(=O)N3CCC[C@H]3C(=O)N[C@@H](CCCCN)C(=O)N2)C(=O)CCSC[C@@H](C(=O)N[C@@H](C)C(N)=O)NC(=O)CNC(=O)[C@H](CCC(=O)O)NC1=O [Peptide 61]	232	–
CC(C)[C@@H]1NC(=O)[C@H](Cc2cnc3ccccc3c2)NC(=O)[C@@H]2CCCN2C(=O)[C@@H]2CSCCC(=O)N3CN(CN(C3)C(=O)CCSC[C@H](NC(=O)[C@H](C)N)C(=O)N[C@@H](CO)C(=O)N[C@@H](Cc3ccccc3)C(=O)N3CCC[C@H]3C(=O)N[C@@H](CCCCN)C(=O)N2)C(=O)CCSC[C@@H](C(=O)N[C@@H](C)C(N)=O)NC(=O)CNC(=O)[C@H](CCC(=O)O)NC1=O [Peptide 62]	27	–
COc1ccc2[nH]cc(C[C@@H]3NC(=O)[C@@H]4CCCN4C(=O)[C@@H]4CSCCC(=O)N5CN(CN(C5)C(=O)CCSC[C@H](NC(=O)[C@H](C)N)C(=O)N[C@@H](CO)C(=O)N[C@@H](Cc5ccccc5)C(=O)N5CCC[C@H]5C(=O)N[C@@H](CCCCN)C(=O)N4)C(=O)CCSC[C@@H](C(=O)N[C@@H](C)C(N)=O)NC(=O)CNC(=O)[C@H](CCC(=O)O)NC(=O)[C@H](C(C)C)NC3=O)c2c1 [Peptide 63]	175	–
CC(C)[C@@H]1NC(=O)[C@H](Cc2c[nH]c3cc(Cl)ccc23)NC(=O)[C@@H]2CCCN2C(=O)[C@@H]2CSCCC(=O)N3CN(CN(C3)C(=O)CCSC[C@H](NC(=O)[C@H](C)N)C(=O)N[C@@H](CO)C(=O)N[C@@H](Cc3ccccc3)C(=O)N3CCC[C@H]3C(=O)N[C@@H](CCCCN)C(=O)N2)C(=O)CCSC[C@@H](C(=O)N[C@@H](C)C(N)=O)NC(=O)CNC(=O)[C@H](CCC(=O)O)NC1=O [Peptide 65]	0.269	More than 10 fold
CC(C)[C@@H]1NC(=O)[C@H](Cc2c[nH]c3cc(F)ccc23)NC(=O)[C@@H]2CCCN2C(=O)[C@@H]2CSCCC(=O)N3CN(CN(C3)C(=O)CCSC[C@H](NC(=O)[C@H](C)N)C(=O)N[C@@H](CO)C(=O)N[C@@H](Cc3ccccc3)C(=O)N3CCC[C@H]3C(=O)N[C@@H](CCCCN)C(=O)N2)C(=O)CCSC[C@@H](C(=O)N[C@@H](C)C(N)=O)NC(=O)CNC(=O)[C@H](CCC(=O)O)NC1=O [Peptide 66]	0.489	More than 10 fold
C[C@H](N)C(=O)N[C@H]1CSCCC(=O)N2CN3CN(C2)C(=O)CCSC[C@H](NC(=O)[C@H](CCCCN)NC(=O)[C@@H]2CCCN2C(=O)[C@H](Cc2ccccc2)NC(=O)[C@H](CO)NC1=O)C(=O)N1CCC[C@H]1C(=O)N[C@@H](Cc1c[nH]c2ccccc12)C(=O)N[C@@H](C(C)(C)C)C(=O)N[C@@H](CCC(=O)O)C(=O)NCC(=O)N[C@H](C(=O)N[C@@H](C)C(N)=O)CSCCC3=O [Peptide 67] (HELM PEPTIDE1{A.C.S.F.P.K.C.P.W.[CC(C)(C)[C@H](N[*:1])C(=O)[*:2]].E.G.C.A.[am]}|CHEM1{[O=C(CC[*:1])N1CN(C(=O)CC[*:2])CN(C(=O)CC[*:3])C1]}$PEPTIDE1,CHEM1,2:R3-1:R1|PEPTIDE1,CHEM1,7:R3-1:R2|PEPTIDE1,CHEM1,13:R3-1:R3$$$V2.0)	574	–
C[C@H](N)C(=O)N[C@H]1CSCCC(=O)N2CN3CN(C2)C(=O)CCSC[C@H](NC(=O)[C@H](CCCCN)NC(=O)[C@@H]2CCCN2C(=O)[C@H](Cc2ccccc2)NC(=O)[C@H](CO)NC1=O)C(=O)N1CCC[C@H]1C(=O)N[C@@H](Cc1c[nH]c2ccccc12)C(=O)N[C@@H](C1CCC1)C(=O)N[C@@H](CCC(=O)O)C(=O)NCC(=O)N[C@H](C(=O)N[C@@H](C)C(N)=O)CSCCC3=O [Peptide 68] (HELM PEPTIDE1{A.C.S.F.P.K.C.P.W.[O=C([C@@H](N[*:1])C1CCC1)[*:2]].E.G.C.A.[am]}|CHEM1{[O=C(CC[*:1])N1CN(C(=O)CC[*:2])CN(C(=O)CC[*:3])C1]}$PEPTIDE1,CHEM1,2:R3-1:R1|PEPTIDE1,CHEM1,7:R3-1:R2|PEPTIDE1,CHEM1,13:R3-1:R3$$$V2.0)	187	–
